Source: US11242337B2, “Compounds useful for treating gastrointestinal tract disorders” (Ardelyx, Inc., priority 2017, dated 2022)

Tests used:
NHE3 = target: T1, NHE3 (Homo sapiens, UniProt P48764); experiment: Cell-based assay of NHE-3 activity (pre-incubation inhibition), human; conditions: human Preincubation; for pIC50: 0-30 μM test compound
T1 construct: expressed in transfected cells
T1 sequence (P48764 26-834): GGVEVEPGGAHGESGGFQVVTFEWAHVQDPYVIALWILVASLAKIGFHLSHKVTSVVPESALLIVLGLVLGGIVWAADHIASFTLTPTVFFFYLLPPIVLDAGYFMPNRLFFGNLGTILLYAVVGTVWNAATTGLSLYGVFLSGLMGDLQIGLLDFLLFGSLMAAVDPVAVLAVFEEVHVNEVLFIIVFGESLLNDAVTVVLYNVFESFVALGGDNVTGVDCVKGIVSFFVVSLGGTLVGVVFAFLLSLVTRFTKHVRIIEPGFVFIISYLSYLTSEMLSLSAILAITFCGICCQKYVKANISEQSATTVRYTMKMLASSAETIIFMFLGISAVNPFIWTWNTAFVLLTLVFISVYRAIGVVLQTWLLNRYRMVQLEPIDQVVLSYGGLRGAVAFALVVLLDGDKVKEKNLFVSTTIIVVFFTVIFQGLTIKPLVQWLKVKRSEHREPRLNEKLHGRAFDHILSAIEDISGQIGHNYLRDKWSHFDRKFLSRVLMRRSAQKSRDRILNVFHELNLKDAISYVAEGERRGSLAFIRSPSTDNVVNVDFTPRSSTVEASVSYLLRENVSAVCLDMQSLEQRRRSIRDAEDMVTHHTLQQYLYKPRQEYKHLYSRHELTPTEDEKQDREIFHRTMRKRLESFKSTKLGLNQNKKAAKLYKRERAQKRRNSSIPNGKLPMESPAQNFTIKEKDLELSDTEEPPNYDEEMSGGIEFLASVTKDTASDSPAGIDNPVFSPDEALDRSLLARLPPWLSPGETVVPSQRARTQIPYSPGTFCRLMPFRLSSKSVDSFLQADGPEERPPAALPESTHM
T1 sequence (Q99653 2-195 partner limits assumed): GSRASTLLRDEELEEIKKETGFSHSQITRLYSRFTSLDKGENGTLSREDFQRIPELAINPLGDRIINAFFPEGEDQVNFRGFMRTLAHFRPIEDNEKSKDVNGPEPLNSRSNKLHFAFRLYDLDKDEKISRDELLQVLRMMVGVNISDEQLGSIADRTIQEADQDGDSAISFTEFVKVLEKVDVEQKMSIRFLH
In short: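 PS120 fibroblasts stably expressing human NHE3 and NHERF2, loaded 30 min at 37 °C with 5 μM BCECF-AM in NH4Cl buffer, then acidified 10 min at room temperature in Na+-free buffer with 0–30 μM compound. Initial rate of BCECF fluorescence ratio change (FLIPR) per minute taken as Na+/H+ activity.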

[1] = system: human duodenum monolayer culture; experiment: Sustained inhibition of apical acid secretion in human organoid monolayer cell cultures (duodenum); format: cell-based; conditions: Homo sapiens
Protocol: Basal media (BM) consisted of advanced DMEM/F12 containing 10 mM HEPES Invitrogen, 15630-080), 1:100 Glutamax (Invitrogen, 35050-061), and 1:100 penicillin/streptomycin (Invitrogen, 15140-122). Supplemented basal media (SBM) contained 1:100 N2 (Invitrogen, 17502-048), 1:50 B27 (Invitrogen, 12587-010), 1 mM N-acetylcysteine (Sigma, A9165), and 10 nM [Leu15]-gastrin I (Sigma, G9145). Growth factors used included 50 ng per mL mouse EGF (Peprotech, 315-09), 100 ng per mL mouse noggin (Peprotech, 250-38), 500 ng per mL human R-spondin 1 (R&D, 4645-RS), 100 ng per mL mouse Wnt-3a (R&D, 1324-WN), 20 μM. Y-27632 (Tocris, 1254), 10 mM nicotinamide (Sigma, N0636), 500 nM A83-01 (Tocris, 2939), 10 μM SB202190 (Tocris, 1264). Transwells were 0.4 μm pore polyester membrane 24-well Transwell inserts (Corning). Cultures were incubated at 37° C. in 5% CO2.
Each human ileum monolayer culture well was washed twice with fresh SBM on the apical side on day 6 before compound dosing. All compound stocks were 10 mM dissolved in DMSO. Each compound stock was individually mixed with fresh SBM to reach final compound concentration 1 μM and dosed only on the apical side of the monolayer (total volume 200 μl). DMSO at the equivalent concentration was used as the vehicle control. Duplicate wells were dosed for each compound. On day 8, apical media pH was measured by pH electrode, to determine the ability of example compounds to produce sustained inhibition of NHE3 activity in a human monolayer culture system by preventing proton secretion into the apical compartment.
Human duodenum organoids were cultured in WENRNAS (Wnt, EGF, noggin, R-spondin1, Nicotinamide, A83-01, SB202190) and typically grown for 7-12 days before being used to plate monolayer cultures. On day 0, organoid cultures embedded in Matrigel were treated with TrypLE Express to break organoids into small pieces and/or single cells. The cells were resuspended to 0.5×10^6 cells/mL in SBM containing WENRAY (Wnt, EGF, noggin, R-spondin1, A83-01, Y-27632). Following this step, 200 μL of cell suspension was plated into the apical side of a 24-well Transwell (100,000 cells/well) and 600 μL of SBM with WENRAY was added to the basolateral side. Duodenum cells were differentiated with ENA (EGF, noggin, A83-01) on day 3. The color of apical compartment turns from pink or orange to yellow due to the increase in NHE3 expression after differentiation.

| % inhibition (NHE3) | pIC50 (NHE3) | SMILES | inhibition at 1 µM [1] [%] |
| --- | --- | --- | --- |
| C (>70%) | C (NHE3 pIC50 > 7) | Cc1cc(Cl)cc2c1C[C@H](N1CCNCC1)[C@H]2Oc1ccc(S(=O)(=O)NCCOCCOCCNC(=O)NCCCCNC(=O)NCCOCCOCCNS(=O)(=O)c2ccc(O[C@H]3c4cc(Cl)cc(C)c4C[C@@H]3N3CCNCC3)c(F)c2)cc1F [Example 36, 3-[2-(2-[2-[(4-[[(1S,2S)-6-Chloro-4-methyl-2-(piperazin-1-yl)-2,3-dihydro-1H-inden-1-yl]oxy]-3-fluorobenzene)sulfonamido]ethoxy]ethoxy)ethyl]-1-[4-([[2-(2-[2-[(4-[[(1S,2S)-6-chloro-4-methyl-2-(piperazin-1-yl)-2,3-dihydro-1H-inden-1-yl]oxy]-3-fluorobenzene)sulfonamido]ethoxy]ethoxy)ethyl]carbamoyl]amino)butyl]urea; bis(trifluoroacetic acid)] | > 70 |
| C (>70%) | C (NHE3 pIC50 > 7) | N#Cc1cc(Cl)cc2c1C[C@H](N1CCNCC1)[C@H]2Oc1ccc(S(=O)(=O)NCCOCCOCCNC(=O)NCCCCNC(=O)NCCOCCOCCNS(=O)(=O)c2ccc(O[C@H]3c4cc(Cl)cc(C#N)c4C[C@@H]3N3CCNCC3)cc2)cc1 [Example 41, 3-[2-(2-[2-[(4-[[(1S,2S)-6-Chloro-4-cyano-2-(piperazin-1-yl)-2,3-dihydro-1H-inden-1-yl]oxy]benzene)sulfonamido]ethoxy]ethoxy)ethyl]-1-[4-([[2-(2-[2-[(4-[[(1S,2S)-6-chloro-4-cyano-2-(piperazin-1-yl)-2,3-dihydro-1H-inden-1-yl]oxy]benzene)sulfonamido]ethoxy]ethoxy)ethyl]carbamoyl]amino)butyl]urea; bis(trifluoroacetic acid)] | > 70 |
| C (>70%) | C (NHE3 pIC50 > 7) | Cc1cc(S(=O)(=O)NCCOCCOCCNC(=O)NCCCCNC(=O)NCCOCCOCCNS(=O)(=O)c2ccc(O[C@H]3c4cc(Cl)cc(C#N)c4C[C@@H]3N3CCNCC3)c(C)c2)ccc1O[C@H]1c2cc(Cl)cc(C#N)c2C[C@@H]1N1CCNCC1 [Example 42, 3-[2-(2-[2-[(4-[[(1S,2S)-6-Chloro-4-cyano-2-(piperazin-1-yl)-2,3-dihydro-1H-inden-1-yl]oxy]-3-methylbenzene)sulfonamido]ethoxy]ethoxy)ethyl]-1-[4-([[2-(2-[2-[(4-[[(1S,2S)-6-chloro-4-cyano-2-(piperazin-1-yl)-2,3-dihydro-1H-inden-1-yl]oxy]-3-methylbenzene)sulfonamido]ethoxy]ethoxy)ethyl]carbamoyl]amino)butyl]urea; bis(trifluoroacetic acid)] | > 70 |
| C (>70%) | C (NHE3 pIC50 > 7) | N#Cc1cc(Cl)cc2c1C[C@H](N1CCNCC1)[C@H]2Oc1ccc(S(=O)(=O)NCCOCCOCCNC(=O)NCCCCNC(=O)NCCOCCOCCNS(=O)(=O)c2ccc(O[C@H]3c4cc(Cl)cc(C#N)c4C[C@@H]3N3CCNCC3)c(F)c2)cc1F [Example 43, 3-[2-(2-[2-[(4-[[(1S,2S)-6-Chloro-4-cyano-2-(piperazin-1-yl)-2,3-dihydro-1H-inden-1-yl]oxy]-3-fluorobenzene)sulfonamido]ethoxy]ethoxy)ethyl]-1-[4-([[2-(2-[2-[(4-[[(1S,2S)-6-chloro-4-cyano-2-(piperazin-1-yl)-2,3-dihydro-1H-inden-1-yl]oxy]-3-fluorobenzene)sulfonamido]ethoxy]ethoxy)ethyl]carbamoyl]amino)butyl]urea; bis(trifluoroacetic acid)] | > 70 |

Continued, compound first:

| SMILES | % inhibition (NHE3) | pIC50 (NHE3) | inhibition at 1 µM [1] [%] |
| --- | --- | --- | --- |
| O=C(NCCCCNC(=O)NCCOCCOCCNS(=O)(=O)c1ccc(O[C@H]2c3cc(Cl)cc(Cl)c3C[C@@H]2N2CCNCC2)c(F)c1)NCCOCCOCCNS(=O)(=O)c1ccc(O[C@H]2c3cc(Cl)cc(Cl)c3C[C@@H]2N2CCNCC2)c(F)c1 [Example 33, 3-[2-(2-[2-[(4-[[(1S,2S)-4,6-Dichloro-2-(piperazin-1-yl)-2,3-dihydro-1H-inden-1-yl]oxy]-3-fluorobenzene)sulfonamido]ethoxy]ethoxy)ethyl]-1-[4-[[(2-(2-[2-[(4-[[(1S,2S)-4,6-dichloro-2-(piperazin-1-yl)-2,3-dihydro-1H-inden-1-y]oxy]-3-fluorobenzene)sulfonamido]ethoxy]ethoxy)ethyl]carbamoyl]amino)butyl]urea; bis(trifluoroacetic acid)] | C (>70%) |  | > 70 |
| Cc1cc(Cl)cc2c1C[C@H](N1CCNCC1)[C@H]2Oc1ccc(S(=O)(=O)NCCOCCOCCNC(=O)NCCCCNC(=O)NCCOCCOCCNS(=O)(=O)c2ccc(O[C@H]3c4cc(Cl)cc(C)c4C[C@@H]3N3CCNCC3)cc2)cc1 [Example 34, 3-[2-(2-[2-[(4-[[(1S,2S)-6-Chloro-4-methyl-2-(piperazin-1-yl)-2,3-dihydro-1H-inden-1-yl]oxy]benzene)sulfonamido]ethoxy]ethoxy)ethyl]-1-[4-([[2-(2-[2-[(4-[[(1S,2S)-6-chloro-4-methyl-2-(piperazin-1-yl)-2,3-dihydro-1H-inden-1-yl]oxy]benzene)sulfonamido]ethoxy]ethyl)ethyl]carbamoyl]amino)butyl]urea; bis(trifluoroacetic acid)] | C (>70%) |  | 50 to 70 |
| Cc1cc(S(=O)(=O)NCCOCCOCCNC(=O)NCCCCNC(=O)NCCOCCOCCNS(=O)(=O)c2ccc(O[C@H]3c4cc(Cl)cc(C)c4C[C@@H]3N3CCNCC3)c(C)c2)ccc1O[C@H]1c2cc(Cl)cc(C)c2C[C@@H]1N1CCNCC1 [Example 35, 3-[2-(2-[2-[(4-[[(1S,2S)-6-Chloro-4-methyl-2-(piperazin-1-yl)-2,3-dihydro-1H-inden-1-yl]oxy]-3-methylbenzene)sulfonamido]ethoxy]ethoxy)ethyl]-1-[4-([[2-(2-[2-[(4-[[(1S,2S)-6-chloro-4-methyl-2-(piperazin-1-yl)-2,3-dihydro-1H-inden-1-yl]oxy]-3-methylbenzene)sulfonamido]ethoxy]ethoxy)ethyl]carbamoyl]amino)butyl]urea; bis(trifluoroacetic acid)] | C (>70%) | C (NHE3 pIC50 > 7) | > 70 |
